Measurements: patent US6664231B1, “Anti-fungal peptides” (priority 1993, dated 2003)
Square brackets hold non-standard residues; d marks the D form. Peptide text beside a SMILES is read from it. * marks the point of attachment. d2Nal = N[C@H](Cc1ccc2ccccc2c1)C(=O)O; Lauroyl = CCCCCCCCCCCC(=O)*; Orn = NCCC[C@H](N)C(=O)O; Dab = NCC[C@H](N)C(=O)O

Assays:
[1] = Serum stability, anti-fungal activity after serum incubation by radial diffusion bioassay; assay type: in vitro ADME, rat or human serum; conditions: Activity in Serum t ½ (hr.)
Description: (§1) For these serum stability experiments, peptides were prepared by solid phase peptide sythesis and purified to 94% or greater purity as described in Example 1. Blood was collected from metaphane anesthesized rats by aortic bleed into Vacutainer™ tubes and allowed to clot at room temperature for approximately 30 minutes, then centrifuged at 3000 rpm (about 1000×g) for 10 minutes at room temperature and the serum aspirated. In addition, frozen human serum (North American Biologics, Inc., Miami, Fla., cat. no. 2140, lot no. 94115) was thawed at room temperature and filtered through a 0.45 μm membrane before use.
(§2) A 1 mg/mL solution of an exemplary XMP peptide to be tested was added to an equal volume of either rat or human serum described above and maintained at 37° C. At 0, 1, 2, and 4 hours, 100 μL were removed and processed by solid phase extraction for HPLC analysis as follows. Serum samples were prepared for HPLC using C-18 Sep-Pak cartridges (1 mL cartridge with 100 mg of sorbent, Waters Corp., Milford, Mass.). One hundred μL of serum sample were added to an equal volume of 1% TFA and mixed for 30 seconds on a Vortex mixer. The sample was then applied to a C-18 Sep-Pak cartridge that had been conditioned by washing with 1 mL of methanol followed by 1 mL Milli-Q water. Weakly reed components were eluted by washing with 1 mL of 0. 1% TFA. The bound peptide was eluted with two volumes of 250 μL 80% acetonitrile/0.065% TFA.
(§3) The peptides identified and purified after serum incubation as described above were subjected to N-terminal peptide sequencing performed on an Applied Biosystems Model 477A/120A sequencer and to electrospray ionization mass spectrometry (ESI/MS) performed using a VG Biotech Bio-Q Mass Spectrometer. In addition, the peptides identified and purified after serum incubation as described above were also tested for their anti-fungal activity in a radial diffusion bioassay with Candida albicans SLU-1 strain as described in Example 2.

[2] = test system: C. albicans (CA-1, Strain SLU-1); assay: Radial diffusion assay; assay type: cell-based, Candida albicans; conditions: pmoles of peptide added to well to achieve a 30 mm^2 zone, PROBIT analysis, crude or purified (P′) peptide
Outline: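 Peptides, serially diluted 2-fold in D-PBS (top ~1 mg/mL), diffused 3 h at 37° C into pH 7.4 phosphate-buffered agarose seeded with 1×10^6 CFU/mL yeast, before overnight growth under a 6% Sabouraud overlayer. Net inhibition zones measured after Coomassie staining; PROBIT fit of log pmol vs area gave pmol for 30 mm^2.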

in vitro = in vitro ADME, rat or human serum; conditions: half-life of peptide in serum as detected by HPLC analysis; for half-life at 0.5 mg/mL: serum, read-out: HPLC Peptide in Serum t ½ (converted)
Description: as §1, §2
The material eluted from the Sep-Pak cartridge was analyzed on a Michrom Ultaafast Microprotein Analyzer equipped with a 150 mm×1 mm, 5μ particle, 300 Å pore C-8 Zorbax column. The column oven was set to 40° C., the flow rate was 100 μL/minute, and injection volumes were typically 5-10 μL. HPLC was performed using 5% acetonitrile/0.1% TFA in water as mobile phase A, and 80% acetonitrile/0.065% TFA as mobile phase B. The eluate was monitored spectiophotometrically at 214 nm. Peptide standards were dissolved in mobile phase A at 0. 1 mg/mL. The gradient was 25-35% B/10 minutes followed by a 5 minute wash step of 100% B and reequilibration at 25% B for 10 minutes.

[3] = test system: Candida albicans SLU-1 strain; assay: Serum stability, anti-fungal activity after serum incubation by radial diffusion bioassay; assay type: in vitro ADME, rat or human serum
Description: as §1, §2, §3

mouse RAW 264.7 cells = conditions: RAW 264.7 cell growth inhibited by 50%
[4] = test system: mouse RAW 264.7 cells incubated with E. coli O113 LPS; conditions: RAW 264.7 cells with E. coli O113 LPS; concentration reversing LPS growth inhibition by 50%

In the case of `CC[C@H](C)[C@H](NC(=O)[C@H](CC(C)C)NC(=O)[C@H](Cc1c[nH]c2ccccc12)NC(=O)[C@H](CCCCN)NC(=O)[C@@H]1CCCN1)C(=O)N[C@@H](CCC(N)=O)C(=O)N[C@@H](CC(C)C)C(=O)N[C@@H](CCCCN)C(=O)N[C@@H](CCCCN)C(N)=O` [XMP.335], the half-life at 0.5 mg/mL [1] is reported as 1.3 h, the “C. albicans pmol/30 mm^2 zone” value [2] is reported as 871 pmol/30 mm^2 zone and the “C. albicans pmol/30 mm^2 zone” value ([2]; listed as XMP.335P′) is reported as 1,353 pmol/30 mm^2 zone. The half-life at 0.5 mg/mL (in vitro) was 2.9 h.

For `CC[C@H](C)[C@H](NC(=O)[C@H](CC(C)C)NC(=O)[C@@H](Cc1ccc2ccccc2c1)NC(=O)[C@H](CCCCN)NC(=O)[C@@H](N)CCCCN)C(=O)N[C@@H](CC(C)C)C(=O)N[C@@H](CC(C)C)C(=O)N[C@@H](CCCCN)C(=O)N[C@@H](CCCCN)C(N)=O` [XMP.347] (H-KK[d2Nal]LILLKK-NH2), the half-life at 0.5 mg/mL [1] was 5.2 h, the “C. albicans pmol/30 mm^2 zone” value [2] was 391 pmol/30 mm^2 zone and the half-life at 0.5 mg/mL (in vitro) was 2.5 h.

With `CC[C@H](C)[C@H](NC(=O)[C@H](CC(C)C)NC(=O)[C@@H](Cc1c[nH]c2ccccc12)NC(=O)[C@H](N)CCCCN)C(=O)N[C@@H](CCC(N)=O)C(=O)N[C@@H](CC(C)C)C(=O)N[C@@H](Cc1ccccc1)C(=O)N[C@@H](Cc1c[nH]cn1)C(=O)N[C@H](CCCCN)C(=O)N[C@H](CCCCN)C(N)=O` [XMP.363] the “Activity in Serum t ½ (hr.)” value [3] was “indefinite”, the “C. albicans pmol/30 mm^2 zone” value [2] was 1,015 pmol/30 mm^2 zone and the “C. albicans pmol/30 mm^2 zone” value ([2]; listed as XMP.363P′) was 741 pmol/30 mm^2 zone. The half-life at 0.5 mg/mL (in vitro) was 11.8 h.

With `CC[C@H](C)[C@H](NC(=O)[C@H](CC(C)C)NC(=O)[C@@H](Cc1c[nH]c2ccccc12)NC(=O)[C@@H](CCCCN)NC(C)=O)C(=O)N[C@@H](CCC(N)=O)C(=O)N[C@@H](CC(C)C)C(=O)N[C@@H](Cc1ccccc1)C(=O)N[C@@H](Cc1c[nH]cn1)C(=O)N[C@H](CCCCN)C(=O)N[C@H](CCCCN)C(N)=O` [XMP.364] the “Activity in Serum t ½ (hr.)” value [3] was “indefinite”, the “C. albicans pmol/30 mm^2 zone” value [2] was 1,523 pmol/30 mm^2 zone and the half-life at 0.5 mg/mL (in vitro) was 25 h.

With `CC[C@@H](C)[C@@H](NC(=O)[C@@H](CCC(N)=O)NC(=O)[C@@H](CC(C)C)NC(=O)[C@@H](Cc1ccccc1)NC(=O)[C@@H](Cc1c[nH]cn1)NC(=O)[C@@H](CCCCN)NC(=O)[C@@H](CCCCN)NC(C)=O)C(=O)N[C@H](CC(C)C)C(=O)N[C@H](Cc1c[nH]c2ccccc12)C(=O)N[C@H](CCCCN)C(N)=O` [XMP.368] the half-life at 0.5 mg/mL [1] was 25.2 h, the “C. albicans pmol/30 mm^2 zone” value [2] was 744 pmol/30 mm^2 zone and the half-life at 0.5 mg/mL (in vitro) was 34.1 h.

For `CC[C@H](C)[C@H](NC(=O)[C@H](CC(C)C)NC(=O)[C@H](Cc1c[nH]c2ccccc12)NC(=O)[C@@H](N)CCCCN)C(=O)N[C@@H](CCCN)C(=O)N[C@@H](CC(C)C)C(=O)N[C@@H](Cc1ccccc1)C(=O)N[C@@H](Cc1c[nH]cn1)C(=O)N[C@@H](CCCCN)C(=O)N[C@@H](CCCCN)C(N)=O` [XMP.369] (H-KWLI[Orn]LFHKK-NH2), the half-life at 0.5 mg/mL [1] was 1.4 h, the “C. albicans pmol/30 mm^2 zone” value [2] was 993 pmol/30 mm^2 zone and the “C. albicans pmol/30 mm^2 zone” value ([2]; listed as XMP.369P′) was 877 pmol/30 mm^2 zone. For the same molecule, the half-life at 0.5 mg/mL (in vitro) was 0.6 h.

With `CC[C@H](C)[C@H](NC(=O)[C@H](CC(C)C)NC(=O)[C@H](Cc1c[nH]c2ccccc12)NC(=O)[C@H](CCCCN)NC(C)=O)C(=O)N[C@@H](CCCN)C(=O)N[C@@H](CC(C)C)C(=O)N[C@@H](Cc1ccccc1)C(=O)N[C@@H](Cc1c[nH]cn1)C(=O)N[C@@H](CCCCN)C(=O)N[C@@H](CCCCN)C(N)=O` [XMP.370] (Ac-KWLI[Orn]LFHKK-NH2) the half-life at 0.5 mg/mL [1] was 4.7 h, the “C. albicans pmol/30 mm^2 zone” value [2] was 310 pmol/30 mm^2 zone and the half-life at 0.5 mg/mL (in vitro) was 2.9 h.

With `CC[C@H](C)[C@H](NC(=O)[C@H](CC(C)C)NC(=O)[C@H](Cc1c[nH]c2ccccc12)NC(=O)[C@H](CCCCN)NC(C)=O)C(=O)N[C@@H](CCN)C(=O)N[C@@H](CC(C)C)C(=O)N[C@@H](Cc1ccccc1)C(=O)N[C@@H](Cc1c[nH]cn1)C(=O)N[C@@H](CCCCN)C(=O)N[C@@H](CCCCN)C(N)=O` [XMP.372] (Ac-KWLI[Dab]LFHKK-NH2) the half-life at 0.5 mg/mL [1] was 1.4 h, the “C. albicans pmol/30 mm^2 zone” value [2] was 328 pmol/30 mm^2 zone and the half-life at 0.5 mg/mL (in vitro) was 6.6 h.

In the case of `CC[C@@H](C)[C@@H](NC(=O)[C@@H](CCC(N)=O)NC(=O)[C@@H](CC(C)C)NC(=O)[C@H](N)CCCCN)C(=O)N[C@H](CC(C)C)C(=O)N[C@H](Cc1c[nH]c2ccccc12)C(=O)N[C@H](CCCCN)C(=O)N[C@H](CCCCN)C(N)=O` [XMP.374], the “Activity in Serum t ½ (hr.)” value [3] is reported as “indefinite”, the “C. albicans pmol/30 mm^2 zone” value [2] is reported as 198 pmol/30 mm^2 zone and the “HPLC Peptide in Serum t ½ (hr.)” value (in vitro) is reported as “indefinite”.

With `CC[C@@H](C)[C@@H](NC(=O)[C@@H](C)NC(=O)[C@@H](Cc1c[nH]c2ccccc12)NC(=O)[C@@H](CCCCN)NC(=O)[C@H](N)CCCCN)C(=O)N[C@H](CCC(N)=O)C(=O)N[C@H](CC(C)C)C(=O)N[C@H](CCCCN)C(=O)N[C@H](CCCCN)C(N)=O` [XMP.375] (H-[dK][dK][dW][dA][dI][dQ][dL][dK][dK]-NH2) the “Activity in Serum t ½ (hr.)” value [3] was “indefinite”, the “C. albicans pmol/30 mm^2 zone” value [2] was 123 pmol/30 mm^2 zone and the “HPLC Peptide in Serum t ½ (hr.)” value (in vitro) was “indefinite”.

For `CCCCCCCCCCCC(=O)N[C@@H](CCCCN)C(=O)N[C@@H](CCCCN)C(=O)N[C@@H](Cc1c[nH]c2ccccc12)C(=O)N[C@@H](C)C(=O)N[C@H](C(=O)N[C@@H](CCC(N)=O)C(=O)N[C@@H](CC(C)C)C(=O)N[C@@H](CCCCN)C(=O)N[C@@H](CCCCN)C(N)=O)[C@@H](C)CC` [XMP.411] (Lauroyl-KKWAIQLKK-NH2; C-terminus assumed), the half-life at 0.5 mg/mL [1] was 4.2 h, the “IC50 (toxicity/growth inhibition of peptide)” value (mouse RAW 264.7 cells) was greater than 25 µg/mL and the “In Vitro LPS Neutralization EC50” value [4] was 2.94 ± 0.14 µg/mL. It also gave a half-life at 0.5 mg/mL (in vitro) of 9.7 h.

For H-GWLIQLFHKK-NH2 [XMP.388], the half-life at 0.5 mg/mL [1] was 1.4 h, the “C. albicans pmol/30 mm^2 zone” value [2] was 170 pmol/30 mm^2 zone and the half-life at 0.5 mg/mL (in vitro) was 0.4 h.

For H-KKPWAIQLKK-NH2 [XMP.379], the half-life at 0.5 mg/mL [1] was 0.3 h, the “C. albicans pmol/30 mm^2 zone” value [2] was 547 pmol/30 mm^2 zone and the half-life at 0.5 mg/mL (in vitro) was 0.8 h.

With H-KKWAIQLKK-NH2 [XMP.344] the half-life at 0.5 mg/mL [1] was 3.3 h, the “C. albicans pmol/30 mm^2 zone” value [2] was 251 pmol/30 mm^2 zone and the half-life at 0.5 mg/mL (in vitro) was 0.6 h.

With H-KKWLIQAKK-NH2 [XMP.345] the half-life at 0.5 mg/mL [1] was 2.7 h, the “C. albicans pmol/30 mm^2 zone” value [2] was 1,211 pmol/30 mm^2 zone and the half-life at 0.5 mg/mL (in vitro) was 1.4 h.

In the case of H-KKWLIQLFHKK-NH2 [XMP.352], the half-life at 0.5 mg/mL [1] is reported as 1.2 h, the “C. albicans pmol/30 mm^2 zone” value [2] is reported as 354 pmol/30 mm^2 zone and the half-life at 0.5 mg/mL (in vitro) is reported as 0.7 h.

In the case of H-KKWLIQLKKK-NH2 [XMP.349], the half-life at 0.5 mg/mL [1] is reported as 3.3 h, the “C. albicans pmol/30 mm^2 zone” value [2] is reported as 120 pmol/30 mm^2 zone and the half-life at 0.5 mg/mL (in vitro) is reported as 1.4 h.

For H-PWAIQLFHKK-NH2 [XMP.387], the half-life at 0.5 mg/mL [1] was 2.3 h, the “C. albicans pmol/30 mm^2 zone” value [2] was 82 pmol/30 mm^2 zone and the half-life at 0.5 mg/mL (in vitro) was 2.8 h.

In the case of H-PWLIQLFHKK-NH2 [XMP.355], the half-life at 0.5 mg/mL [1] is reported as 5.7 h, the “C. albicans pmol/30 mm^2 zone” value [2] is reported as 2,529 pmol/30 mm^2 zone and the “C. albicans pmol/30 mm^2 zone” value ([2]; listed as XMP.355P′) is reported as 218 pmol/30 mm^2 zone. The half-life at 0.5 mg/mL (in vitro) was 3.2 h.
